These results are taken from US12435083B2, “Cyclopropyl-(hetero)aryl-substituted ethylsulphonyl-pyridine derivatives” (BOEHRINGER INGELHEIM VETMEDICA GMBH, priority 2021, dated 2025).

Like-named read-outs stand apart in the source and are kept apart here.

Assay [1] deals with adult Ctenocephalides felis fleas. The assay can be described thus: Ingestion activity (flea membrane feeding, blood feeding) against adult Ctenocephalides felis. As to conditions: Ctenocephalides felis. An excerpt:
Example 6: Screening Method to Test Ingestion Activity of Compounds of Formula (I) Against Adult Ctenocephalides felis
(§1) The four structurally closest prior art compounds (A), (B), (C) and (D) specifically excluded from the scope of formula (I) were characterized vis-a-vis selected compounds of formula (I) with regard to their potency in in vitro screening assays against fleas (Ctenocehalides felis) and ticks (Rhipicephalus sanguineus).
It is important to note that compounds that show better activity versus ticks are more desirable in the animal health field, as ticks are more difficult to control than fleas. Noteworthy, in particular with regard to fleas the illustrated comparative data are based on a flea membrane feeding (ingestion, blood feeding) assay. Data from this assay are more relevant for compounds intended to be delivered systemically to an animal via oral or injectable routes. Membrane feeding assays differ to primary screening laboratory contact assays in that the latter only measure the effect of the direct contact of selected compounds on the parasite, such as the flea or the tick. The information derived from laboratory contact assays is strictly limited to the ability of the compound to be absorbed through the parasite surface and to reach its molecular target, and no information can be gleaned from these contact assays as to whether the compound would also be active when presented orally to the ectoparasite itself in a blood meal, such as with the membrane feeding assay, and certainly not when administered orally to an animal host (e.g. “in vivo”) with subsequent exposure to the ectoparasite.
(§2) However, as explained above, spectrum of action against this range of species (i.e. fleas and ticks) is a desirable property of ectoparasiticides for veterinary use. In the following table 1 comparative experimental data of the in vitro assays are shown regarding flea membrane feeding (ingestion, blood feeding) activity against Ctenocephalides felis and contact activity against Rhipicephalus sanguineus.

In another assay the test system is Plutella xylostella. The assay can be described thus: Insecticidal test on Plutella xylostella (Chinese cabbage seedling dip). As to conditions: 144 h, read-out: activity level (corrected mortality rate), Plutella xylostella. Here is the method: Example 12: Insecticidal Test on Plutella xylostella
(§3) The compounds of formula (I) of the present invention or salts thereof were separately dispersed in water and diluted to 500 ppm. Ten adults of Plutella xylostella were released onto Chinese cabbage seedlings and allowed to lay eggs thereon. 2 days after the release of the adults, the seedling was dipped in the dispersion for about 30 seconds. After air dried, the seedling was kept in a room at 25° C. 6 days after the dip treatment, the numbers of the dead and alive insects were counted. The corrected mortality rate was calculated according to the following formula and the insecticidal activity was evaluated according to the following criteria. Corrected mortality rate (%)=100×(Survival rate in an untreated plot−Survival rate in a treated plot)/Survival rate in an untreated plot • A: the corrected mortality rate is 100% • B: the corrected mortality rate is 90 to 99% • C: the corrected mortality rate is 80 to 89% • D: the corrected mortality rate is 50 to 79%

For assay [2], the system named is Laodelphax striatellus 3rd-instar nymphs. In words: Insecticidal test on Laodelphax striatellus (rice seedling dip). As to conditions: 192 h, read-out: activity level (corrected mortality rate), Laodelphax striatellus. Here is the method:
Example 13: Insecticidal Test on Laodelphax striatellus
as §3, with “Rice plant seedlings” for “Ten adults of Plutella xylostella”, “were” for “were released onto Chinese cabbage seedlings and allowed to lay eggs thereon. 2 days after the release of the adults, the seedling was”, “seedlings were put into a separate glass test tube and inoculated with ten 3rd-instar nymphs of Laodelphax striatellus and then the glass test tube” for “seedling”, “8” for “6”, “inoculation,” for “dip treatment,”

The test system of assay [3] is adult Rhipicephalus sanguineus ticks. In words: Contact activity against adult Rhipicephalus sanguineus (coated vial, mortality at 48 h). As to conditions: Rhipicephalus sanguineus. Here is the method:
Example 5: Screening Method to Test Contact Activity of Compounds of Formula (I) Against Adult Rhipicephalus sanguineus
Compounds of formula (I) formulated in 100% DMSO were diluted in a solution containing acetone and Triton X-100 (0.02%). The resulting formulation was used to coat the inner walls of glass scintillation vials and the filter paper covering the cap of the vial. Once dried, ten adult R. sanguineus ticks were added to the vials. The vials were incubated at 24° C., 95% relative humidity, and 12 hours of light/12 hours of dark until evaluation. Ticks were visually evaluated for mortality at 48 hours post-treatment. Compound efficacy at a given dose is expressed as percentage mortality. A dose response series was implemented to determine EC50 values.
as §1, §2

Assay [4] has as its system adult Ctenocephalides felis fleas. In words: Contact activity against adult Ctenocephalides felis (treated surface, motility by machine vision, 24 h). The following applies: read-out: EC80 (% motility reduction, adult C. felis, contact). An excerpt: Example 7: Screening Method to Test Contact Activity of Compounds of Formula (I) Against Adult Ctenocephalides felis
For the next assay, the system named is Myzus persicae. In words: Insecticidal test on Myzus persicae (foliar application on potted Chinese cabbage). As to conditions: 144 h, 500 ppm, foliar application, 6 days after application, read-out: control efficacy level (control rate), Myzus persicae. An excerpt:
Example 14: Insecticidal Test on Myzus persicae
The compounds of formula (I) of the present invention or salts thereof were separately dispersed in water and diluted to 500 ppm. Chinese cabbage plants were planted in plastic pots (diameter: 8 cm, height: 8 cm). Aphids (Myzus persicae) were propagated on the plants and then the number of surviving aphids was counted. The dispersion was applied to the foliage of the potted plants. After the plants were air dried, these were kept in a greenhouse. 6 days after the application, the number of the alive insects was counted on the plants. The control rate was calculated according to the following formula and the control efficacy was evaluated according to the following criteria. Control rate (%)=100−{(T×Ca)/(Ta×C)}×100 • Ta: the number of alive insects before the foliar application in a treated plot • T: the number of alive insects after the foliar application in a treated plot • Ca: the number of alive insects before the foliar application in an untreated plot • C: the number of alive insects after the foliar application in an untreated plot • A: the control rate is 100% • B: the control rate is 90 to 99% • C: the control rate is 80 to 89% • D: the control rate is 50 to 79%

The mark [5] stands for this setting: bovine blood, 24h post treatment, read-out: EC80 (% motility reduction, adult C. felis, ingestion via membrane feeding).
Setting [6] is: 500 ppm, seedling dip, 6 days after dip treatment.
The mark [7] stands for this setting: 500 ppm, seedling dip, 8 days after inoculation.
[8] abbreviates: 48 hours post-treatment, coated vial, read-out: EC50 (percentage mortality, adult R. sanguineus, contact).

For orientation: mortality means the share of the test organisms that died. Take `CCS(=O)(=O)c1cc(-c2cnnc(C3CC3)c2)cnc1-c1nc2cc(C(F)(F)C(F)(F)F)cnc2n1C` [Compound 195, 3-cyclopropyl-5-[5-(ethanesulfonyl)-6-[3-methyl-6-(1,1,2,2,2-pentafluoroethyl)imidazo[4,5-b]pyridin-2-yl]pyridin-3-yl]pyridazine]: the EC80 in assay [1] (setting [5]) is less than 1 µM. The mortality at 500 ppm (with Plutella xylostella (setting [6]); in assay [2] (setting [7])) was 100% in each case.

As usually defined, the EC50 is the concentration needed to bring the measured effect to its halfway point. Take `CCS(=O)(=O)c1cc(-c2ccc(C3(C)CC3)cc2)cnc1-c1nc2cc(C(F)(F)C(F)(F)F)nnc2n1C` [compound 154]: the EC50 in assay [3] (setting [8]) lay within 10 to 100 µM. The EC80 in assay [4] (treated surface, 24h) lay within 1 to 10 µM. Further, in the assay on Plutella xylostella (setting [6]), the mortality at 500 ppm was found to be 100%. For the same compound, the pest or weed control at 500 ppm with Myzus persicae was determined as 100%.

In the case of `CCS(=O)(=O)c1cc(-c2ccc(C3CC3)cc2)cnc1-c1ncc(OCC(F)(F)C(F)(F)F)c(=O)n1C` [Compound 110, 2-[5-(4-cyclopropylphenyl)-3-(ethanesulfonyl)pyridin-2-yl]-3-methyl-5-(2,2,3,3,3-pentafluoropropoxy)pyrimidin-4-one], the EC80 in assay [4] (treated surface, 24h) lay in the range of 1 to 10 µM.

In the case of `CCS(=O)(=O)c1cc(-c2ccc(C3CC3)cc2)cnc1-c1nc2cc(C(F)(F)F)cnc2o1` [Compound 40, 5-(4-cyclopropylphenyl)-3-(ethanesulfonyl)-2-[6-(trifluoromethyl)-[1,3]oxazolo[5,4-b]pyridin-2-yl]pyridine], the EC80 in assay [4] (treated surface, 24h) is 1 to 10 µM. The mortality at 500 ppm in the assay on Plutella xylostella (setting [6]) worked out at 100%.

For the compound `CCS(=O)(=O)c1cc(-c2cnc(C3CC3)nc2)cnc1-c1nc2cc(C(F)(F)C(F)(F)F)nnc2n1C` [Compound 93, 2-cyclopropyl-5-[5-(ethanesulfonyl)-6-[7-methyl-3-(1,1,2,2,2-pentafluoroethyl)imidazo[4,5-c]pyridazin-6-yl]pyridin-3-yl]pyrimidine], the EC80 was 1 to 10 µM in assay [1] (setting [5]) and less than 1 µM in assay [4] (treated surface, 24h).

Turning to `CCn1cc(C(F)(F)F)cc2nc(-c3ncc(-c4ncc(C5CC5)cn4)cc3S(=O)(=O)CC)cc1-2` [Compound 92, 5-cyclopropyl-2-[5-(ethanesulfonyl)-6-[4-ethyl-6-(trifluoromethyl)pyrrolo[3,2-b]pyridin-2-yl]pyridin-3-yl]pyrimidine], the EC80 in assay [4] (treated surface, 24h) lay in the range of 1 to 10 µM. Besides, in the assay with Plutella xylostella (setting [6]), the mortality at 500 ppm is 100%. In addition, the pest or weed control at 500 ppm in the assay on Myzus persicae was determined as 100%.

With `CCn1cc(C(F)(F)F)cc2nc(-c3ncc(-c4ccc(C5CC5)cc4)cc3S(=O)(=O)CC)cc1-2` [Compound 6, 5-(4-cyclopropylphenyl)-3-(ethanesulfonyl)-2-[4-ethyl-6-(trifluoromethyl)pyrrolo[3,2-b]pyridine-2-yl]pyridine], the EC80 in assay [4] (treated surface, 24h) lay within 1 to 10 µM. In addition, the mortality at 500 ppm in the assay on Plutella xylostella (setting [6]) turned out to be 100%.

On to `CCS(=O)(=O)c1cc(-c2ccc(C3CC3)cc2)cnc1-c1cc2n(C(C)C)cc(C(F)(F)F)cc-2n1` [Compound 100, 5-(4-cyclopropylphenyl)-3-(ethanesulfonyl)-2-[4-isopropyl-6-(trifluoromethyl)pyrrolo[3,2-b]pyridin-2yl]pyridine], for which the EC50 in assay [3] (48 h, read-out: EC50 (percentage mortality, adult R. sanguineus, contact)) is less than 10 µM. The EC80 in assay [4] (24 h) lay within 1 to 10 µM. Further, the mortality at 500 ppm (in the assay with Plutella xylostella; in assay [2]) was 100% throughout.

For `CCS(=O)(=O)c1cc(-c2ccc(C3CC3)cc2)cnc1-c1ccc(OCC(F)(F)C(F)(F)F)nn1` [Compound 126, 3-[5-(4-cyclopropylphenyl)-3-(ethanesulfonyl)pyridin-2-yl]-6-(2,2,3,3,3-pentafluoropropoxy)pyridazine], in assay [3] (setting [8]), the EC50 is less than 10 µM. Besides, the mortality at 500 ppm (in the assay with Plutella xylostella (setting [6]); in assay [2] (setting [7])) was 100% in each case. Moreover, the pest or weed control at 500 ppm in the assay on Myzus persicae was determined as 100%.

Regarding `CCS(=O)(=O)c1cc(-c2ccc(C3CC3(F)F)cc2)cnc1-c1nc2cc(C(F)(F)C(F)(F)F)cnc2n1C` (centres unmarked) [compound 134], the EC50 is 10 to 100 µM in assay [3] (setting [8]) and 10 to 100 µM in assay [3] (contact assay, >100 μM = not active at the top concentration, read-out: R. sanguineus contact activity EC50). The EC80 in assay [1] (24 h, flea membrane feeding (ingestion, blood feeding) assay, EC80, read-out: C. felis membrane feeding (ingestion/blood feeding) activity EC80) was 1 to 10 µM; in assay [1] (setting [5]) it was 1 to 10 µM; in assay [4] (treated surface, 24h), 1 to 10 µM. The mortality at 500 ppm (in the assay with Plutella xylostella (setting [6]); in assay [2] (setting [7])) was 100% each time. In the assay with Myzus persicae, the pest or weed control at 500 ppm was 100%.

As to `CCS(=O)(=O)c1cc(-c2cc(C3CC3)ccn2)cnc1-c1nc2cc3c(cc2n1C)OC(F)(F)O3` [Compound 14, 6-(4-cyclopropyl-5′-(ethylsulfonyl)-[2,3′-bipyridin]-6′-yl)-2,2-difluoro-5-methyl-5H-[1,3]dioxolo[4′,5′:4,5]benzo[1,2-d]imidazole], the EC80 in assay [4] (treated surface, 24h) is 1 to 10 µM.

With `CCn1c(=O)c(C(F)(F)F)cc2nc(-c3ncc(-c4ccc(C5CC5)cc4)cc3S(=O)(=O)CC)n(C)c21` [compound 125], the EC80 in assay [4] (treated surface, 24h) fell in the range of 1 to 10 µM. Also, the pest or weed control at 500 ppm in the assay on Myzus persicae was 100%.

Take `CCS(=O)(=O)c1cc(-c2ccc(C3CC3)cc2)cnc1-c1nc(-c2cc(C(F)(F)F)ccn2)cn1C` [Compound 55, 5-(4-cyclopropylphenyl)-3-(ethanesulfonyl)-2-[1-methyl-4-[4-(trifluoromethyl)pyridin-2-yl]imidazol-2-yl]pyridine]: the mortality at 500 ppm (with Plutella xylostella (setting [6]); in assay [2] (setting [7])) was 100% throughout. Besides, the pest or weed control at 500 ppm in the assay on Myzus persicae came out at 100%.

In the case of `CCS(=O)(=O)c1cc(-c2cccnc2C2CC2)cnc1-c1nc2cc(C(F)(F)C(F)(F)F)nnc2n1C` [compound 138], the EC80 in assay [1] (setting [5]) was less than 1 µM; in assay [4] (treated surface, 24h), less than 1 µM. The mortality at 500 ppm (in the assay on Plutella xylostella (setting [6]); in assay [2] (setting [7])) was 100% throughout. Further, the pest or weed control at 500 ppm in the assay on Myzus persicae worked out at 100%.
